What was measured:
CCL-5 = assay: Inflammatory markers, RT-PCR expression study in TNF-α induced FLS; assay type: cell-based; conditions: sample 10 μg/mL; FLS induced with 10 ng/ml rat TNF-α, 6 hrs; Control = 1, Induced 7.16
Description: (§1) FLS cells (8×10^4 cells/well) were seeded in 24-well plates and incubated overnight at 37° C. under 5% CO2. […] RT-PCR expression study: After 6 hrs of incubation, total cellular RNA from untreated and treated cells were isolated using Trizol Reagent® (Ambion, Life Technologies), according to the manufacturer's instructions, followed by RNase-free DNase I treatment (ThermoFisher Scientific) to remove any genomic DNA. Messenger RNA quality and concentration were analyzed spectrophotometrically (NanoDrop Lite, ThermoFisher Scientific). One microgram of total RNA was reverse transcribed into cDNA using Revert-aid First Strand cDNA synthesis kit (ThermoFisher Scientific), according to the manufacturer's instructions, and stored at −80° C. until use. Then 20 μl of the reaction mixture was subjected to PCR using SYBR green qPCR master mix for amplification of cDNAs using specifically designed primers procured from Eurofins India, as an internal control, the house keeping gene § actin was co-amplified with each reaction (Table 2). PCR was carried out in Light cycler 96 (Roche Life Science) and PCR conditions for genes were initial denaturation at 95° C. for 10 min followed by 35 cycles consisting of denaturation at 95° C. for 30 seconds, annealing of primers at 60° C. for 30 seconds, extension at 72° C. for 30 seconds and final cooling at 72° C. for 30 seconds (Table 1).

Cathepsin = assay: as above; assay type: cell-based; conditions: sample 10 μg/mL; FLS induced with 10 ng/ml rat TNF-α, 6 hrs; Control = 1, Induced 3.86
Description: as §1

IFN-γ = assay: as above; assay type: cell-based; conditions: sample 10 μg/mL; FLS induced with 10 ng/ml rat TNF-α, 6 hrs; Control = 1, Induced 5.7
Description: as §1

MMP-3 = assay: as above; assay type: cell-based; conditions: sample 10 μg/mL; FLS induced with 10 ng/ml rat TNF-α, 6 hrs; Control = 1, Induced 5.14
Description: as §1

TNF-α = assay: as above; assay type: cell-based; conditions: sample 10 μg/mL; FLS induced with 10 ng/ml rat TNF-α, 6 hrs; Control = 1, Induced 7.93
Description: as §1

[1] = system: collagen-induced arthritis (CIA); assay: Collagen-induced arthritis study, arthritic score; assay type: in vivo, rat; conditions: positive control, 10 mg/kg; RA control is 3.5; scale 0-4; FIG. 32
From the text: The […] (Table 4) collagen-induced arthritis (CIA) is a widely studied autoimmune model of rheumatoid arthritis. In this model, autoimmune arthritis is induced by immunization with type II collagen (CII) emulsified in complete Freund's adjuvant. These animals develop an autoimmune-mediated polyarthritis that shares several clinical, histological, and immunological features with the human autoimmune disease rheumatoid arthritis. The immune response to CII is characterized by both the stimulation of collagen-specific T cells and the production of high titers of antibody specific for both the immunogen (heterologous CII) and the autoantigen (mouse or rat CII).
Arthritis induced by administering type-2 collagen (chicken sternal cartilage, Sigma catalog no: C9301) which will be emulsified with incomplete Freund's adjuvant (FIA) at 1:1 ratio. On Day 0, Rats were intradermally injected with 200 μL (200 μg/animal) of collagen-FIA emulsion at the base of the tail (First Immunization). For booster injection the emulsion was prepared same as above and injected with 100 μL (100 μg/animal) of collagen-FIA emulsion given on day 7. Test sample administered from day 0 to day 20. […]

[2] = system: Th17 and Treg cells in spleen; assay: Treg and Th17 analysis in spleen (flow cytometry); assay type: in vivo, rat; conditions: spleen of CIA rats; celecoxib control; RA control at 3.5; FIG. 35
Description: Spleen was obtained from collagen induced arthritis rats under sterile conditions for the lymphocyte isolation. The spleen was washed twice with PBS containing 100 μg/ml streptomycin and 100 U/ml penicillin and cut into small pieces with microsurgery scissors, homogenized with plunger end of the syringe and filtered using a 100 μm mesh strainer. The filtrate was centrifuged for 5 min at 1200 rpm, washed 1-2 times with PBS, after which 1×10^6 cells/ml were suspended in RPMI media supplemented with 10% FBS. The imbalance is effected by reducing Th17 cells and increasing T-cell (Treg) (FIGS. 33-35) with the ratio of Th17/Treg preferably as 1, or more preferably between 0-1 compared to RA control at 3.5 (FIG. 35).
After the stimulation, cells were collected and 2×10^5 cells were aliquoted into different tubes for evaluating Th17 and Treg population. The antibody dilutions used for the analysis were as recommended by the respective manufacturer. To evaluate Th17 population, cells were initially stained with FITC Mouse Anti-Rat CD3 (559975, BD pharmingen) and APC Mouse Anti-Rat CD4 (550057, BD pharmingen) antibodies. […] FCM was performed on a BD FACSCelesta system (BD Biosciences, Franklin Lakes, N.J., USA) and analyzed using FlowJo software.

[3] = system: Fibroblast-like synoviocytes (FLS); assay: WST-1 proliferation assay; assay type: cell-based, rat; conditions: 20 μg/mL, 72 hours; FIG. 5
Description: FLS were isolated from synovial tissues by enzymatic digestion. In short, the tissues were separated into 1-mm^3 blocks with microsurgery scissors. After which the tissues were incubated with 0.1% collagenase type II enzyme in DMEM supplemented with 10% FBS for enzymatic digestion at 37° C. for 45 min in an orbital shaker incubator (200 rpm).
After the incubation time, the tubes were vortexed vigorously for 1-2 min to release the cells and filtered using a 100 μm mesh strainer. The filtrate was centrifuged for 5 min at 1200 rpm, the cells were resuspended in DMEM supplemented with 10% FBS and 100 μg/ml streptomycin and 100 U/ml penicillin and cultured in a humidified incubator at 37° C. under 5% CO2.
WST-1 assay was used to measure the effect of different samples on FLS proliferation. FLS were seeded in 96-well plates at a density of 5×10^3 cells/well and incubated overnight at 37° C. under 5% CO2. After the treatment period, 100 μl WST-1 reagent (5015944001, Sigma, USA) diluted 1:10 in serum-free DMEM culture media was added to each well, and incubated at 37° C. under 5% CO2 for 2 h. The absorbance was measured at 450 nm with a reference wavelength of 610 nm.

Bax/Bcl-2 = assay: Apoptosis analysis, Bax/Bcl-2 RT-PCR expression in FLS; assay type: cell-based, rat; conditions: 24 h treatment; compared to the control; FIG. 19
Description: FLS apoptosis was assessed with RT-PCR expression study. In short, FLS cells (8×10^4 cells/well) were seeded in 24-well plates and incubated overnight at 37° C. under 5% CO2. After synchronization in serum-free medium for 24 h, cells were treated with or without the presence of samples in DMEM 10% FBS for 24 h. After the treatment period, the cells were collected, total cellular RNA was isolated and processed for RT-PCR analysis (Table 3) as mentioned before.

Compound: O=C(/C=C/c1ccc(O)cc1)CC(=O)/C=C/c1ccc(O)cc1 [BDMC, bisdemethoxycurcumin]
- CCL-5 (inflammatory marker expression) (CCL-5): 4.07 ± 0.05
- Cathepsin (inflammatory marker expression) (Cathepsin): 3.36 ± 0.37
- IFN-γ (inflammatory marker expression) (IFN-γ): 4.57 ± 0.11
- MMP-3 (inflammatory marker expression) (MMP-3): 6.07 ± 0.05
- TNF-α (inflammatory marker expression) (TNF-α): 3.20 ± 2.1

Compound: Cc1ccc(-c2cc(C(F)(F)F)nn2-c2ccc(S(N)(=O)=O)cc2)cc1 [celecoxib]
- arthritis score [1]: 1
- ratio of Th17/Treg [2]: 0.5

Compound: COc1cc(/C=C/C(=O)CC(=O)/C=C/c2ccc(O)c(OC)c2)ccc1O [Curcumin, curcumin]
- inhibition of FLS proliferation, trend among curcuminoid analogues [3]: BDMC>curcumin>DMC
- CCL-5 (inflammatory marker expression) (CCL-5): 3.01 ± 0.04
- Cathepsin (inflammatory marker expression) (Cathepsin): 2.70 ± 0.14
- IFN-γ (inflammatory marker expression) (IFN-γ): 2.7 ± 0.19
- MMP-3 (inflammatory marker expression) (MMP-3): 3.98 ± 0.48
- TNF-α (inflammatory marker expression) (TNF-α): 3.93 ± 0.84
- Bax/Bcl-2 ratio (pro-apoptosis), ranking (Bax/Bcl-2): BDMC>DMC>curcumin

Compound: COc1cc(/C=C/C(O)=C/C(=O)/C=C/c2ccc(O)cc2)ccc1O [DMC, demethoxycurcumin]
- CCL-5 (inflammatory marker expression) (CCL-5): 7.03 ± 3.03
- Cathepsin (inflammatory marker expression) (Cathepsin): 3.69 ± 0.14
- IFN-γ (inflammatory marker expression) (IFN-γ): 4.43 ± 0.15
- MMP-3 (inflammatory marker expression) (MMP-3): 4.91 ± 0.41
- TNF-α (inflammatory marker expression) (TNF-α): 3.57 ± 1.77

From US20220193006A1, “COMPOSITIONS FOR EFFECTIVE MANAGEMENT OF FIBROBLAST-LIKE SYNOVIOCYTES MEDIATED RHEUMATOID ARTHRITIS” (priority 2020, published 2022)
